The target of the assay is T1, human QR2 (Homo sapiens, UniProt P16083).
T1 sequence (P16083 1-231): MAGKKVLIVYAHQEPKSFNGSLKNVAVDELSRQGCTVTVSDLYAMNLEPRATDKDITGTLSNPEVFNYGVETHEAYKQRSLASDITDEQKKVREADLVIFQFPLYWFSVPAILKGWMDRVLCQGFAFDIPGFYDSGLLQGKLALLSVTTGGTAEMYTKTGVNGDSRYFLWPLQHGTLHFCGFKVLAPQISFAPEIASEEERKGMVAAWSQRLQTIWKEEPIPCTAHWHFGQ
The experiment in a line: Steady-state kinetic assay of QR2 inhibition. It counts as biochemical. The following applies: for inhibition at 100 µM: read-out: average percent inhibition of QR2; for average percent inhibition of QR2: at 100 μM inhibitor.

As for `CC(C)Oc1cc(/C=C(\C#N)c2ccc(O)cc2)cc(OC(C)C)c1` [Analogue 4a, (Z)-3-(3,5-diisopropoxyphenyl)-2-(4-hydroxyphenyl)acrylonitrile], the inhibition at 100 µM was at most 20%.

In the case of `COc1ccc(/C(C#N)=C/c2cc(OC(C)C)cc(OC(C)C)c2)cc1` [Analogue 4c, (Z)-3-(3,5-diisopropoxyphenyl)-2-(4-methoxyphenyl)acrylonitrile], the inhibition at 100 µM is at most 20%.

For the compound `CN(C)c1ccc(NC(=O)c2ccc(O)cc2)cc1` [Analogue 8f, N-(4-(dimethylamino)phenyl)-4-hydroxybenzamide], the “average percent inhibition of QR2” value is “eliminates inhibition of QR2”.

For `CN(C)c1ccc(C(=O)Nc2cc(O)cc(O)c2)cc1` [Analogue 8k, N-(3,5-dihydroxyphenyl)-4-(dimethylamino)benzamide], the “average percent inhibition of QR2” value is “eliminates inhibition of QR2”.

With `COc1cc(OC)cc(C(=O)Nc2ccc3ccccc3c2)c1` [Analogue 8p, 3,5-dimethoxy-N-(naphthalen-2-yl)benzamide], the “average percent inhibition of QR2” value is reported as “no inhibition of QR2”.

What is called inhibition is the share of the control response that was lost under treatment.

The record behind these values is PMC3804415 (Bioorganic & medicinal chemistry, 2013).
